This passage reports inhibition results from patent US20130252930A1 (BIOMARIN PHARMACEUTICAL INC., priority 2010, published 2013).

A value given as a limit tells only on which side of the number the result lay.

As a reminder, the inhibition is the drop in the measured response relative to a control, in per cent.

The first experiment has as its target T1, CYP17 (human testicular microsome) (Homo sapiens, UniProt P05093).
T1 construct: using microsomal fraction from human testis (Celsis Cat #S00110) as the enzyme source; tissue Celsis S00110; host or cells: human testis microsomal fraction
T1 sequence (P05093 1-508): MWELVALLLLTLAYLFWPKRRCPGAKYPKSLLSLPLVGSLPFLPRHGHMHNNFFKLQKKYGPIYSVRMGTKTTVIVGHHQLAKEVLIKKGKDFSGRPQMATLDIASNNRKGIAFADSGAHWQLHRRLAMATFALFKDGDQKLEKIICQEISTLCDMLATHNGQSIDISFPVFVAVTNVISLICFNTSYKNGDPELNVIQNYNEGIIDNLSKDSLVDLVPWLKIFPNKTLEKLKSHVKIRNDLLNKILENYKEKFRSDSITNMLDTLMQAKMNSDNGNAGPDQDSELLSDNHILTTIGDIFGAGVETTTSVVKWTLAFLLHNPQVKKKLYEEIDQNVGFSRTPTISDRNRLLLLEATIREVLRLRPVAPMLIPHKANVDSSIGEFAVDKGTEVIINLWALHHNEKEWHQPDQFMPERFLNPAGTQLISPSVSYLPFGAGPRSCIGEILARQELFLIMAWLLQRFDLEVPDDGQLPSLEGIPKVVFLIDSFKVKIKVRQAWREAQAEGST
The experiment is described as follows: CYP17 enzymatic assay (% inhibition at 1 nM) (Biological Example 12). Type of experiment: biochemical. The settings on record: compound at 1 nM, read-out: Biological Example No. 12: CYP17 enzymatic assay % inhibition at 1 nM.
For `C[C@]1(O)CC[C@@]2(C)C(CCC3C2CC[C@]2(C)C(c4cncc(Cl)c4)=CCC32)C1` (stereo partly drawn) [Compound 265, (3S,10S,13S)-17-(5-chloropyridin-3-yl)-3,10,13-trimethyl-2,3,4,5,6,7,8,9,10,11,12,13,14,15-tetradecahydro-1H-cyclopenta[a]phenanthren-3-ol], the inhibition at 0.001 µM is less than 10%.
Turning to `C[C@@]1(O)CC[C@@]2(C)C(CCC3C2CC[C@]2(C)C(c4cncc(Cl)c4)=CCC32)C1` (stereo partly drawn) [Compound 266, (3R,10S,13S)-17-(5-chloropyridin-3-yl)-3,10,13-trimethyl-2,3,4,5,6,7,8,9,10,11,12,13,14,15-tetradecahydro-1H-cyclopenta[a]phenanthren-3-ol], the inhibition at 0.001 µM was in the range of 10 to 50%.
As to `C[C@]12CC[C@H]3[C@@H](CC=C4C[C@@H](O)CC[C@@]43C)C1=CC=C2c1cncc(Cl)c1` [Compound 273, (3S,10R,13S)-17-(5-chloropyridin-3-yl)-10,13-dimethyl-2,3,4,7,8,9,10,11,12,13-decahydro-1H-cyclopenta[a]phenanthren-3-ol], the inhibition at 0.001 µM was in the range of 10 to 50%.
For `C[C@]12CC[C@H](O)CC1=CCC1C2CC[C@]2(C)C(c3cncc(C#N)c3)=CCC12` (stereo partly drawn) [Compound 275, 5-((3S,10R,13S)-3-hydroxy-10,13-dimethyl-2,3,4,7,8,9,10,11,12,13,14,15-dodecahydro-1H-cyclopenta[a]phenanthren-17-yl)nicotinonitrile], the inhibition at 0.001 µM is 10 to 50%.
On to `Cc1cnc(F)c(C2=CCC3C4CC=C5C[C@@H](O)CC[C@]5(C)C4CC[C@]23C)c1` (stereo partly drawn) [Compound 277, (3S,10R,13S)-17-(2-fluoro-5-methylpyridin-3-yl)-10,13-dimethyl-2,3,4,7,8,9,10,11,12,13,14,15-dodecahydro-1H-cyclopenta[a]phenanthren-3-ol], for which the inhibition at 0.001 µM was 10 to 50%.
Take `Cc1cc(C2=CCC3C4CC=C5C[C@@H](O)CC[C@]5(C)C4CC[C@]23C)cnc1F` (stereo partly drawn) [Compound 278, (3S,10R,13S)-17-(6-fluoro-5-methylpyridin-3-yl)-10,13-dimethyl-2,3,4,7,8,9,10,11,12,13,14,15-dodecahydro-1H-cyclopenta[a]phenanthren-3-ol]: the inhibition at 0.001 µM was less than 10%.
`C[C@]12CC[C@H](O)CC1=CCC1C2CC[C@]2(C)C(c3cncc(NS(=O)(=O)C(F)(F)F)c3)=CCC12` (stereo partly drawn) [Compound 282, 1,1,1-trifluoro-N-(5-((3S,10R,13S)-3-hydroxy-10,13-dimethyl-2,3,4,7,8,9,10,11,12,13,14,15-dodecahydro-1H-cyclopenta[a]phenanthren-17-yl)pyridin-3-yl)methanesulfonamide]: the inhibition at 0.001 µM was less than 10%.
The same measure, in the same setting: then `C[C@]12CC[C@H](O)CC1=CCC1C2CC[C@]2(C)C(c3cncc(NS(C)(=O)=O)c3)=CCC12` (stereo partly drawn) [Compound 284, N-(5-((3S,10R,13S)-3-hydroxy-10,13-dimethyl-2,3,4,7,8,9,10,11,12,13,14,15-dodecahydro-1H-cyclopenta[a]phenanthren-17-yl)pyridin-3-yl)methanesulfonamide], with less than 10%.

Staying with this experiment, now noted: compound at 1 nM, read-out: CYP17 enzymatic assay % inhibition at 1 nM (Biological Example No. 12).
With `CCNC(=S)N[C@@H]1CC[C@@]2(C)C(=CC[C@@H]3[C@@H]2CC[C@]2(C)C(c4cccnc4)=CC[C@@H]32)C1` [Compound 233, 1-((3R,10R,13S)-10,13-dimethyl-17-(pyridin-3-yl)-2,3,4,7,8,9,10,11,12,13,14,15-dodecahydro-1H-cyclopenta[a]phenanthren-3-yl)-3-ethylthiourea], the inhibition at 0.001 µM lay in the range of 10 to 50%.
As to `CCNC(=O)NC1CC[C@@]2(C)C(=CC[C@@H]3[C@@H]2CC[C@]2(C)C(c4cncc(OC)c4)=CC[C@@H]32)C1` (stereo partly drawn) [Compound 234, 1-ethyl-3-((10R,13S)-17-(5-methoxypyridin-3-yl)-10,13-dimethyl-2,3,4,7,8,9,10,11,12,13,14,15-dodecahydro-1H-cyclopenta[a]phenanthren-3-yl)urea], the inhibition at 0.001 µM fell in the range of 10 to 50%.
Regarding `C[C@]12CCC(NC(=O)c3nccs3)CC1=CCC1C2CC[C@]2(C)C(n3ccnc3)=CCC12` (stereo partly drawn) [Compound 241, N-((10R,13S)-17-(1H-imidazol-1-yl)-10,13-dimethyl-2,3,4,7,8,9,10,11,12,13,14,15-dodecahydro-1H-cyclopenta[a]phenanthren-3-yl)thiazole-2-carboxamide], the inhibition at 0.001 µM lay in the range of 10 to 50%.
With `CCNC(=O)N[C@@H]1CC[C@@]2(C)C(CC[C@@H]3[C@@H]2CC[C@]2(C)C(n4ccnc4)=CC[C@@H]32)C1` (stereo partly drawn) [Compound 247, 1-((3R,10S,13S)-17-(1H-imidazol-1-yl)-10,13-dimethyl-2,3,4,5,6,7,8,9,10,11,12,13,14,15-tetradecahydro-1H-cyclopenta[a]phenanthren-3-yl)-3-ethylurea], the inhibition at 0.001 µM is more than 50%.
On to `C[C@]12CC[C@H]3[C@@H](CC(=O)C45CC4CC[C@]35C)C1=CC=C2c1cccnc1` (stereo partly drawn) [Compound 250, (3aR,5aS)-3a,5a-dimethyl-6-(pyridin-3-yl)-1a,2,3,3a,3b,4,5,5a,8b,9-decahydrocyclopenta[a]cyclopropa[2,3]cyclopenta[1,2-f]naphthalen-10(1H)-one], for which the inhibition at 0.001 µM is more than 50%.
Regarding `C[C@]12CC[C@H]3[C@@H](CC(Nc4nccs4)C45CC4CC[C@]35C)[C@@H]1CC=C2c1cccnc1` (stereo partly drawn) [Compound 251, N-((3aR,5aS)-3a,5a-dimethyl-6-(pyridin-3-yl)-1,1a,2,3,3a,3b,4,5,5a,8,8a,8b,9,10-tetradecahydrocyclopenta[a]cyclopropa[2,3]cyclopenta[1,2-f]naphthalen-10-yl)thiazol-2-amine], the inhibition at 0.001 µM was in the range of 10 to 50%.
In the case of `C[C@]12CC[C@@](O)(C3CC3)CC1CC[C@@H]1[C@@H]2CC[C@]2(C)C(c3cccnc3)=CC[C@@H]12` (stereo partly drawn) [Compound 252, (3S,10S,13S)-3-cyclopropyl-10,13-dimethyl-17-(pyridin-3-yl)-2,3,4,5,6,7,8,9,10,11,12,13,14,15-tetradecahydro-1H-cyclopenta[a]phenanthren-3-ol], the inhibition at 0.001 µM was 10 to 50%.
Turning to `C[C@@]1(O)CC[C@@]2(C)C(CCC3C2CC[C@]2(C)C(c4cccnc4)=CCC32)C1` (stereo partly drawn) [Compound 253, (3R,10S,13S)-3,10,13-trimethyl-17-(pyridin-3-yl)-2,3,4,5,6,7,8,9,10,11,12,13,14,15-tetradecahydro-1H-cyclopenta[a]phenanthren-3-ol], the inhibition at 0.001 µM is less than 10%.
With `C#C[C@@]1(O)CC[C@@]2(C)C(CCC3C2CC[C@]2(C)C(c4cccnc4)=CCC32)C1` (stereo partly drawn) [Compound 257, (3R,10S,13S)-3-ethynyl-10,13-dimethyl-17-(pyridin-3-yl)-2,3,4,5,6,7,8,9,10,11,12,13,14,15-tetradecahydro-1H-cyclopenta[a]phenanthren-3-ol], the inhibition at 0.001 µM was 10 to 50%.
Regarding `C[C@@]1(O)CC[C@@]2(C)C(CCC3C4=CC=C(c5cccnc5)[C@@]4(C)CCC32)C1` (stereo partly drawn) [Compound 260, (3R,10S,13S)-3,10,13-trimethyl-17-(pyridin-3-yl)-2,3,4,5,6,7,8,9,10,11,12,13-dodecahydro-1H-cyclopenta[a]phenanthren-3-ol], the inhibition at 0.001 µM is less than 10%.
For `CC1(C)C(=O)CC[C@@]2(C)C1=CC[C@@H]1[C@@H]2CC[C@]2(C)C(c3cccnc3)=CC[C@@H]12` [Compound 293, (10R,13S)-4,4,10,13-tetramethyl-17-(pyridin-3-yl)-4,7,8,9,10,11,12,13,14,15-decahydro-1H-cyclopenta[a]phenanthren-3(2H)-one], the inhibition at 0.001 µM was less than 10%.
Take `CC1(C)C2=CC[C@@H]3[C@H](CC[C@]4(C)C(c5cccnc5)=CC[C@@H]34)[C@@]2(C)CCC1O` (stereo partly drawn) [Compound 294, (10R,13S)-4,4,10,13-tetramethyl-17-(pyridin-3-yl)-2,3,4,7,8,9,10,11,12,13,14,15-dodecahydro-1H-cyclopenta[a]phenanthren-3-ol]: the inhibition at 0.001 µM is less than 10%.

The same experiment, now with this note: test compound at 1 nM, read-out: CYP17 enzymatic assay percent inhibition at 1 nM (Biological Example No. 12).
In the case of `C[C@@]1(O)CC[C@@]2(C)C(=CCC3C2CC[C@]2(C)C(c4cccnc4)=CCC32)C1` (stereo partly drawn) [Compound 267, (3R,10R,13S)-3,10,13-trimethyl-17-(pyridin-3-yl)-2,3,4,7,8,9,10,11,12,13,14,15-dodecahydro-1H-cyclopenta[a]phenanthren-3-ol], the inhibition at 0.001 µM was more than 50%.
With `C[C@]1(O)CC[C@@]2(C)C(=CCC3C2CC[C@]2(C)C(c4cccnc4)=CCC32)C1` (stereo partly drawn) [Compound 268, (3S,10R,13S)-3,10,13-trimethyl-17-(pyridin-3-yl)-2,3,4,7,8,9,10,11,12,13,14,15-dodecahydro-1H-cyclopenta[a]phenanthren-3-ol], the inhibition at 0.001 µM is more than 50%.
For `C[C@]1(O)CC[C@@]2(C)C(=CCC3C2CC[C@]2(C)C(c4cncc(F)c4)=CCC32)C1` (stereo partly drawn) [Compound 270, (3S,10R,13S)-17-(5-fluoropyridin-3-yl)-3,10,13-trimethyl-2,3,4,7,8,9,10,11,12,13,14,15-dodecahydro-1H-cyclopenta[a]phenanthren-3-ol], the inhibition at 0.001 µM was in the range of 10 to 50%.
With `CC(=O)Nc1cncc(C2=CCC3C4CC=C5C[C@@H](O)CC[C@]5(C)C4CC[C@]23C)c1` (stereo partly drawn) [Compound 281, N-(5-((3S,10R,13S)-3-hydroxy-10,13-dimethyl-2,3,4,7,8,9,10,11,12,13,14,15-dodecahydro-1H-cyclopenta[a]phenanthren-17-yl)pyridin-3-yl)acetamide], the inhibition at 0.001 µM was less than 10%.
